# Test results reported in patent publication US11795460B2, “Compositions and methods for TTR gene editing and treating ATTR amyloidosis” (Intellia Therapeutics, Inc., priority 2017, dated 2023).
# System: TTR
# Assay: TTR editing in primary cyno hepatocytes electroporated with Spy Cas9 protein and dgRNAs (Tables 10, 11)
# Format: cell-based, cynomolgus monkey
# Conditions: Table 10; primary cyno hepatocytes electroporated with Spy Cas9 protein (RNP) and dgRNAs
# Protocol: Primary liver hepatocytes. Primary human liver hepatocytes (PHH) and primary cynomolgus liver hepatocytes (PCH) (Gibco) were cultured per the manufacturer's protocol (Invitrogen, protocol 11.28.2012). In brief, the cells were thawed and resuspended in hepatocyte thawing medium with supplements (Gibco, Cat. CM7000) followed by centrifugation at 100 g for 10 minutes for human and 80 g for 4 minutes for cyno. The supernatant was discarded and the pelleted cells resuspended in hepatocyte plating medium plus supplement pack (Invitrogen, Cat. A1217601 and CM3000). Cells were counted and plated on Bio-coat collagen I coated 96-well plates (ThermoFisher, Cat. 877272) at a density of 33,000 cells/well for human or 60,000 cells/well for cyno (or 65,000 cells/well when assaying effects on TTR protein, described further below). Plated cells were allowed to settle and adhere for 6 or 24 hours in a tissue culture incubator at 37° C. and 5% CO2 atmosphere. After incubation cells were checked for monolayer formation and media was replaced with hepatocyte culture medium with serum-free supplement pack (Invitrogen, Cat. A1217601 and CM4000).
# […] formation was performed prior to electroporation or transfection of Spy Cas9 protein loaded with guide RNAs (RNPs) onto cells. For dual guide (dgRNAs), individual crRNA and trRNA was pre-annealed by mixing equivalent amounts of reagent and incubating at 95° C. for 2 min and cooling to room temperature. Single guide (sgRNAs) were boiled at 95° C. for 2 min and cooling to room temperature. The boiled dgRNA or sgRNA was incubated with Spy Cas9 protein in Optimem for 10 minutes at room temperature to form a ribonucleoprotein (RNP) complex.
# For RNP electroporation into primary human and cyno hepatocytes, the cells are thawed and resuspended in Lonza electroporation Primary Cell P3 buffer at a concentration of 2500 cells per μL for human hepatocytes and 3500 cells per μL for cyno hepatocytes. A volume of 20 μL of resuspended cells and 5 μL of RNP are mixed together per guide. 20 μL of the mixture is placed into a Lonza electroporation plate. The cells were electroporated using the Lonza nucleofector with the preset protocol EX-147. Post electroporation, the cells are transferred into a Biocoat plate containing pre-warmed maintenance media and placed in a tissue culture incubator at 37° C. and 5% CO2.
# Transfected cells were harvested post-transfection at 24, 48, or 72 hours. The genomic DNA was extracted from each well of a 96-well plate using 50 μL/well BuccalAmp DNA Extraction solution (Epicentre, Cat. QE09050) per manufacturer's protocol. All DNA samples were subjected to PCR and subsequent NGS analyses, as described herein.
# To quantitatively determine the efficiency of editing at the target location in the genome, sequencing was utilized to identify the presence of insertions and deletions introduced by gene editing.
# Primers were designed around the target site within the gene of interest (e.g. TTR), and the genomic area of interest was amplified.
# Additional PCR was performed per the manufacturer's protocols (Illumina) to add chemistry for sequencing. The amplicons were sequenced on an Illumina MiSeq instrument. The reads were aligned to a reference genome (e.g., the human reference genome (hg38), the cynomologus reference genome (mf5), the rat reference genome (rn6), or the mouse reference genome (mm10)) after eliminating those having low quality scores. The resulting files containing the reads were mapped to the reference genome (BAM files), where reads that overlapped the target region of interest were selected and the number of wild type reads versus the number of reads which contain an insertion, substitution, or deletion was calculated.
# The editing percentage (e.g., the “editing efficiency” or “percent editing” or “indel frequency”) is defined as the total number of sequence reads with insertions/deletions (“indels”) or substitutions over the total number of sequence reads, including wild type. […]
Sequence,Avg % Deletion [%],Avg % Edit [%],Avg % Insert [%]
"AAAGGCUGCUGAUGACACCU (tested as dual guide RNA, chemistry not given here) [CR003353]",0.08,4.75,4.67
"AAAGUUCUAGAUGCUGUCCG (tested as dual guide RNA, chemistry not given here) [CR003346]",0.09,1.91,1.82
"AAAUAGACACCAAAUCUUAC (tested as dual guide RNA, chemistry not given here) [CR003366]",0.90,18.52,17.62
"AAGUGCCUUCCAGUAAGAUU (tested as dual guide RNA, chemistry not given here) [CR003368]",0.26,18.56,18.30
"AAUAGGAGUAGGGGCUCAGC (tested as dual guide RNA, chemistry not given here) [CR003384]",1.25,3.75,2.50
"ACACAAAUACCAGUCCAGCA (tested as dual guide RNA, chemistry not given here) [CR003339]",4.02,8.95,4.93
"ACCUCUGCAUGCUCAUGGAA (tested as dual guide RNA, chemistry not given here) [CR003371]",0.14,1.83,1.69
"ACGUGUCUUCUCUACACCCA (tested as dual guide RNA, chemistry not given here) [CR005302]",0.08,1.34,1.26
"ACUGAGGAGGAAUUUGUAGA (tested as dual guide RNA, chemistry not given here) [CR003363]",2.39,15.64,13.24
"AGUCCCUCAUUCCUUGGGAU (tested as dual guide RNA, chemistry not given here) [CR003392]",0.38,7.02,6.63
"AGUGAGUCUGGAGAGCUGCA (tested as dual guide RNA, chemistry not given here) [CR003359]",5.51,46.17,40.66
"AUACCAGUCCAGCAAGGCAG (tested as dual guide RNA, chemistry not given here) [CR003338]",0.05,44.94,44.89
"AUAGGAGUAGGGGCUCAGCA (tested as dual guide RNA, chemistry not given here) [CR003383]",4.55,8.86,4.31
"AUGCAGCUCUCCAGACUCAC (tested as dual guide RNA, chemistry not given here) [CR003358]",1.46,20.47,19.01
"AUUGGUGACGACAGCCGUGG (tested as dual guide RNA, chemistry not given here) [CR003389]",0.78,18.83,18.05
"CAUUGAUGGCAGGACUGCCU (tested as dual guide RNA, chemistry not given here) [CR003347]",0.25,72.41,72.15
"CCAGUCCAGCAAGGCAGAGG (tested as dual guide RNA, chemistry not given here) [CR003337]",0.84,24.94,24.10
"CCCCUACUCCUAUUCCACCA (tested as dual guide RNA, chemistry not given here) [CR003385]",4.12,30.96,26.84

Sequence,Avg % Deletion [%],Avg % Edit [%],Avg % Insert [%]
"CCGUGGUGGAAUAGGAGUAG (tested as dual guide RNA, chemistry not given here) [CR003386]",2.03,5.54,3.51
"CCUCCUCUGCCUUGCUGGAC (tested as dual guide RNA, chemistry not given here) [CR003336]",0.07,8.18,8.10
"CCUCUGCAUGCUCAUGGAAU (tested as dual guide RNA, chemistry not given here) [CR003370]",0.12,2.52,2.40
"CUCUGCAUGCUCAUGGAAUG (tested as dual guide RNA, chemistry not given here) [CR003369]",0.25,1.53,1.28
"CUGAGGAGGAAUUUGUAGAA (tested as dual guide RNA, chemistry not given here) [CR003364]",5.35,19.62,14.27
"CUGGUAUUUGUGUCUGAGGC (tested as dual guide RNA, chemistry not given here) [CR003341]",0.77,8.43,7.66
"GAAAGGCUGCUGAUGACACC (tested as dual guide RNA, chemistry not given here) [CR003352]",0.09,1.25,1.16
"GACGACAGCCGUGGUGGAAU (tested as dual guide RNA, chemistry not given here) [CR003388]",0.22,6.81,6.59
"GCAUGGGCUCACAACUGAGG (tested as dual guide RNA, chemistry not given here) [CR003362]",0.22,4.59,4.36
"GCCGUGGUGGAAUAGGAGUA (tested as dual guide RNA, chemistry not given here) [CR003387]",0.17,4.72,4.55
"GCUGCAUGGGCUCACAACUG (tested as dual guide RNA, chemistry not given here) [CR003361]",0.08,4.53,4.46
"GGAGUAGGGGCUCAGCAGGG (tested as dual guide RNA, chemistry not given here) [CR003382]",2.33,10.86,8.54
"GGCUGUCGUCACCAAUCCCA (tested as dual guide RNA, chemistry not given here) [CR003391]",0.71,36.44,35.73
"GGGAUUGGUGACGACAGCCG (tested as dual guide RNA, chemistry not given here) [CR003390]",0.39,16.87,16.49
"GUCACAGAAACACUCACCGU (tested as dual guide RNA, chemistry not given here) [CR005301]",0.42,46.76,46.34
"GUGAGUCUGGAGAGCUGCAU (tested as dual guide RNA, chemistry not given here) [CR003360]",0.42,29.47,29.05
"UACUCACCUCUGCAUGCUCA (tested as dual guide RNA, chemistry not given here) [CR003372]",0.32,2.15,1.83
